# According to patent US20230398130A1, “METHODS AND COMPOSITIONS FOR DIFFERENTIATING STEM CELLS” (Massachusetts Institute of Technology, priority 2020, published 2023):
# Columns and labels:
# ISC-enriched organoids [1] = test: Primary screen, 384-well 2.5-D organoid differentiation (ENR+CD, 6 days): basal lysozyme secretion (LYZ.NS); format: cell-based, murine; conditions: for Dose.FC.LYZ.NS: FC vs plate median; for SSMD.LYZ.NS: strictly standardized mean difference
# Description: (§1) High-throughput screening.
# ISC-enriched organoids [2] = test: Primary screen, 384-well 2.5-D organoid differentiation (ENR+CD, 6 days): carbachol-induced lysozyme secretion (LYZ.S); format: cell-based, murine; conditions: for Dose.FC.LYZ.S: FC vs plate median; for Z.LYZ.S: standard z score; for SSMD.LYZ.S: strictly standardized mean difference
# Description: as §1
# ISC-enriched organoids [3] = test: Primary screen, 384-well 2.5-D organoid differentiation (ENR+CD, 6 days, Target Selective Inhibitor Library, vs whole-plate median): ATP (CellTiter-Glo 3D, CTG); conditions: for Dose.FC.CTG: FC vs plate median; for SSMD.CTG: strictly standardized mean difference
# [4] = Dose 0.08 uM, primary screen, standard z score
# [5] = Dose 0.40 uM, primary screen, standard z score
# [6] = Dose 2.00 uM, primary screen, standard z score
# [7] = Dose 10.00 uM, primary screen, standard z score
# [8] = primary screen, 1st of the 4 dose lines of the treatment (dose not given)
# [9] = primary screen, 2nd of the 4 dose lines of the treatment (dose not given)
# [10] = primary screen, 3rd of the 4 dose lines of the treatment (dose not given)
# [11] = primary screen, 4th of the 4 dose lines of the treatment (dose not given)
# [12] = Dose 0.08 uM, standard z score of FC
# [13] = Dose 0.40 uM, standard z score of FC
# [14] = Dose 2.00 uM, standard z score of FC
# [15] = Dose 10.00 uM, standard z score of FC
structure (smiles),measurement,setting,value
Cl.Cl.O=S(=O)(NCCNC/C=C/c1ccc(Br)cc1)c1cccc2cnccc12 [H 89 2HCl],Dose.FC.LYZ.NS,"ISC-enriched organoids [1]; Dose 0.08 uM, primary screen",0.140 log 2 fold change
same,Z.LYZ.NS,ISC-enriched organoids [1]; [4],1.223
same,Dose.FC.LYZ.NS,"ISC-enriched organoids [1]; Dose 0.40 uM, primary screen",0.080 log 2 fold change
same,Z.LYZ.NS,ISC-enriched organoids [1]; [5],0.695
same,Dose.FC.LYZ.NS,"ISC-enriched organoids [1]; Dose 2.00 uM, primary screen",0.086 log 2 fold change
same,Z.LYZ.NS,ISC-enriched organoids [1]; [6],0.747
same,Dose.FC.LYZ.NS,"ISC-enriched organoids [1]; Dose 10.00 uM, primary screen",0.132 log 2 fold change
same,Z.LYZ.NS,ISC-enriched organoids [1]; [7],1.151
same,SSMD.LYZ.NS,ISC-enriched organoids [1]; [8],0.995
same,SSMD.LYZ.NS,ISC-enriched organoids [1]; [9],0.816
same,SSMD.LYZ.NS,ISC-enriched organoids [1]; [10],0.521
same,SSMD.LYZ.NS,ISC-enriched organoids [1]; [11],0.374
same,Dose.FC.LYZ.S,"ISC-enriched organoids [2]; Dose 0.08 uM, primary screen",0.118 log 2 fold change
same,Dose.FC.LYZ.S,"ISC-enriched organoids [2]; Dose 0.40 uM, primary screen",0.148 log 2 fold change
same,Dose.FC.LYZ.S,"ISC-enriched organoids [2]; Dose 2.00 uM, primary screen",0.087 log 2 fold change
same,Dose.FC.LYZ.S,"ISC-enriched organoids [2]; Dose 10.00 uM, primary screen",0.000 log 2 fold change
same,Z.LYZ.S,ISC-enriched organoids [2]; [8],0.764
same,Z.LYZ.S,ISC-enriched organoids [2]; [9],0.955
same,Z.LYZ.S,ISC-enriched organoids [2]; [10],0.565
same,Z.LYZ.S,ISC-enriched organoids [2]; [11],−0.001
same,SSMD.LYZ.S,ISC-enriched organoids [2]; [8],0.529
same,SSMD.LYZ.S,ISC-enriched organoids [2]; [9],0.703
same,SSMD.LYZ.S,ISC-enriched organoids [2]; [10],0.329
same,SSMD.LYZ.S,ISC-enriched organoids [2]; [11],−0.001
same,Dose.FC.CTG,"ISC-enriched organoids [3]; Dose 0.08 uM, primary screen",0.350 log 2 fold change
same,Z.CTG,ISC-enriched organoids [3]; [4],0.836
same,Dose.FC.CTG,"ISC-enriched organoids [3]; Dose 0.40 uM, primary screen",0.398 log 2 fold change
same,Z.CTG,ISC-enriched organoids [3]; [5],0.950
same,Dose.FC.CTG,"ISC-enriched organoids [3]; Dose 2.00 uM, primary screen",0.421 log 2 fold change
same,Z.CTG,ISC-enriched organoids [3]; [6],1.005
same,Dose.FC.CTG,"ISC-enriched organoids [3]; Dose 10.00 uM, primary screen",0.385 log 2 fold change
same,Z.CTG,ISC-enriched organoids [3]; [7],0.919
same,SSMD.CTG,ISC-enriched organoids [3]; [8],1.039
same,SSMD.CTG,ISC-enriched organoids [3]; [9],0.952
same,SSMD.CTG,ISC-enriched organoids [3]; [10],0.830
same,SSMD.CTG,ISC-enriched organoids [3]; [11],1.211
C[C@H](N[C@@H](CCc1ccccc1)C(=O)O)C(=O)N1CCC[C@H]1C(=O)O.O.O [Enalaprilat Dihydrate],Dose.FC.LYZ.NS,"ISC-enriched organoids [1]; Dose 0.08 uM, ENR+CD, 6 days",0.003 log 2 fold change
same,Z.LYZ.NS,ISC-enriched organoids [1]; [12],0.027
same,Dose.FC.LYZ.NS,"ISC-enriched organoids [1]; Dose 0.40 uM, ENR+CD, 6 days",−0.003 log 2 fold change
same,Z.LYZ.NS,ISC-enriched organoids [1]; [13],−0.030
same,Dose.FC.LYZ.NS,"ISC-enriched organoids [1]; Dose 2.00 uM, ENR+CD, 6 days",−0.022 log 2 fold change
same,Z.LYZ.NS,ISC-enriched organoids [1]; [14],−0.195
same,Dose.FC.LYZ.NS,"ISC-enriched organoids [1]; Dose 10.00 uM, ENR+CD, 6 days",−0.157 log 2 fold change
same,Z.LYZ.NS,ISC-enriched organoids [1]; [15],−1.364
same,Dose.FC.LYZ.S,"ISC-enriched organoids [2]; Dose 0.08 uM, ENR+CD, 6 days",−0.001 log 2 fold change
same,Dose.FC.LYZ.S,"ISC-enriched organoids [2]; Dose 0.40 uM, ENR+CD, 6 days",0.111 log 2 fold change
same,Dose.FC.LYZ.S,"ISC-enriched organoids [2]; Dose 2.00 uM, ENR+CD, 6 days",−0.095 log 2 fold change
same,Dose.FC.LYZ.S,"ISC-enriched organoids [2]; Dose 10.00 uM, ENR+CD, 6 days",−0.281 log 2 fold change
same,Dose.FC.CTG,"ISC-enriched organoids [3]; Dose 0.08 uM, ENR+CD, 6 days",−0.190 log 2 fold change
same,Z.CTG,ISC-enriched organoids [3]; [12],−0.454
same,Dose.FC.CTG,"ISC-enriched organoids [3]; Dose 0.40 uM, ENR+CD, 6 days",−0.124 log 2 fold change
same,Z.CTG,ISC-enriched organoids [3]; [13],−0.296
same,Dose.FC.CTG,"ISC-enriched organoids [3]; Dose 2.00 uM, ENR+CD, 6 days",−0.331 log 2 fold change
same,Z.CTG,ISC-enriched organoids [3]; [14],−0.791
same,Dose.FC.CTG,"ISC-enriched organoids [3]; Dose 10.00 uM, ENR+CD, 6 days",−0.979 log 2 fold change
same,Z.CTG,ISC-enriched organoids [3]; [15],−2.338
CS(=O)(=O)c1cccc(CNc2nc(Nc3ccc4c(c3)CCC(=O)N4)ncc2C(F)(F)F)c1 [PF-573228],Dose.FC.LYZ.NS,"ISC-enriched organoids [1]; Dose 0.08 uM, primary screen",0.010 log 2 fold change
same,Z.LYZ.NS,ISC-enriched organoids [1]; [12],0.089
same,Dose.FC.LYZ.NS,"ISC-enriched organoids [1]; Dose 0.40 uM, primary screen",−0.046 log 2 fold change
same,Z.LYZ.NS,ISC-enriched organoids [1]; [13],−0.401
same,Dose.FC.LYZ.NS,"ISC-enriched organoids [1]; Dose 2.00 uM, primary screen",−0.058 log 2 fold change
same,Z.LYZ.NS,ISC-enriched organoids [1]; [14],−0.502
same,Dose.FC.LYZ.NS,"ISC-enriched organoids [1]; Dose 10.00 uM, primary screen",−0.250 log 2 fold change
same,Z.LYZ.NS,ISC-enriched organoids [1]; [15],−2.180
same,Dose.FC.LYZ.S,"ISC-enriched organoids [2]; Dose 0.08 uM, primary screen",0.114 log 2 fold change
same,Dose.FC.LYZ.S,"ISC-enriched organoids [2]; Dose 0.40 uM, primary screen",0.002 log 2 fold change
same,Dose.FC.LYZ.S,"ISC-enriched organoids [2]; Dose 2.00 uM, primary screen",−0.174 log 2 fold change
same,Dose.FC.LYZ.S,"ISC-enriched organoids [2]; Dose 10.00 uM, primary screen",−0.305 log 2 fold change
same,Dose.FC.CTG,"ISC-enriched organoids [3]; Dose 0.08 uM, primary screen",0.077 log 2 fold change
same,Z.CTG,ISC-enriched organoids [3]; [12],0.183
same,Dose.FC.CTG,"ISC-enriched organoids [3]; Dose 0.40 uM, primary screen",−0.054 log 2 fold change
same,Z.CTG,ISC-enriched organoids [3]; [13],−0.129
same,Dose.FC.CTG,"ISC-enriched organoids [3]; Dose 2.00 uM, primary screen",−0.434 log 2 fold change
same,Z.CTG,ISC-enriched organoids [3]; [14],−1.037
same,Dose.FC.CTG,"ISC-enriched organoids [3]; Dose 10.00 uM, primary screen",−0.497 log 2 fold change
same,Z.CTG,ISC-enriched organoids [3]; [15],−1.188
O=C(O)c1ccc(Nc2ncc3c(n2)-c2ccc(Cl)cc2C(c2c(F)cccc2F)=NC3)cc1 [MLN8054],SSMD.LYZ.NS,ISC-enriched organoids [1]; [8],0.618
same,SSMD.LYZ.NS,ISC-enriched organoids [1]; [9],0.061
same,SSMD.LYZ.NS,ISC-enriched organoids [1]; [10],−0.713
same,SSMD.LYZ.NS,ISC-enriched organoids [1]; [11],−0.870
same,Z.LYZ.S,ISC-enriched organoids [2]; [8],0.274
same,Z.LYZ.S,ISC-enriched organoids [2]; [9],1.081
same,Z.LYZ.S,ISC-enriched organoids [2]; [10],−0.562
same,Z.LYZ.S,ISC-enriched organoids [2]; [11],−1.274
same,SSMD.LYZ.S,ISC-enriched organoids [2]; [8],0.241
same,SSMD.LYZ.S,ISC-enriched organoids [2]; [9],0.554
same,SSMD.LYZ.S,ISC-enriched organoids [2]; [10],−0.486
same,SSMD.LYZ.S,ISC-enriched organoids [2]; [11],−0.964
same,Z.CTG,ISC-enriched organoids [3]; [12],0.063
same,Z.CTG,ISC-enriched organoids [3]; [13],0.033
same,Z.CTG,ISC-enriched organoids [3]; [14],−1.111
same,Z.CTG,ISC-enriched organoids [3]; [15],−1.191
same,SSMD.CTG,ISC-enriched organoids [3]; [8],0.080
same,SSMD.CTG,ISC-enriched organoids [3]; [9],0.035
same,SSMD.CTG,ISC-enriched organoids [3]; [10],−0.959
same,SSMD.CTG,ISC-enriched organoids [3]; [11],−1.480
